From publication PMC10673615, “Quercetin-1,2,3-Triazole Hybrids as Multifunctional Anti-Alzheimer’s Agents” (Molecules, 2023)

Assays:
MCF-7 cells [1] = assay: in vitro
Description: (§1) Given the importance of oxidative stress-induced apoptosis of neuronal cells in AD, we present here a study to investigate the effect of quercetin-1,2,3-triazole hybrids on H2O2-induced oxidative damage in cultured MCF-7 cells, used as a human cell model. Viability was assessed with the WST-1 test in the absence and in the presence of an oxidative stressor (10^−4 M H2O2).
(§2) MCF-7 (Human breast adenocarcinoma (MERCK—# 86012803-DNA-5UG), Database Name: ECACC collection, Accession Numbers: 86012803) was the cell line elected as a cell injury model for the study of the potential protective effect of the butyrylcholinesterase inhibitors (hybrids) against hydrogen peroxide-induced oxidative stress. Cytotoxicity of the hybrids was also evaluated.
(§3) The compounds to be tested were firstly dissolved in dimethyl sulfoxide (DMSO) at a concentration of 4 × 10^−2 M. They were then diluted in cell growth media (EMEM) (supplemented with FBS 10%) with 0.25% DMSO to obtain solutions between 6.25 and 50.00 µM.
(§4) Eagle’s Minimum Essentia Medium (EMEM), including 10% fetal bovine serum (FBS), 100 IU/mL penicillin, and 100 μg/mL streptomycin, was used to culture MCF-7 cells at 37 °C in 5% CO2 atmosphere incubator with media replenished every 2 days. A total of 5 × 10^3 cells were cultured in 96-well plates and incubated for 72 h prior to stimulus application.
(§5) The culture medium was subsequently replaced with different final concentrations (6.25–50 μM) of the compounds to be tested. Negative controls were prepared, incubating cells in culture media.
(§6) Parallel experiments were performed for cytotoxicity assessment and for protective effect against hydrogen peroxide-induced oxidative stress evaluation. First, 10 μL of PBS was added in the designated wells; second, 10 μL of H2O2 (reaching a final concentration of 100 µM) was added. Following a 2 h incubation period at 37 °C in 5% CO2 atmosphere incubator, cellular viability was measured by adding WST-1 dehydrogenases substrate and incubating for 1 h, and the amount of formazan dye produced was evaluated by measuring the absorbance at 440 nm.

MCF-7 cells [2] = assay: Protective assay against hydrogen peroxide-induced oxidative stress in MCF-7 cells; format: cell-based, Human; details: 100 µM H2O2, 2 h
Description: as §1, §2, §5, §6

eeAChE = molecular target: T1, eeAChE (Electrophorus electricus, UniProt O42275); assay: Ellman cholinesterase inhibitory assay, eeAChE screening; format: biochemical; details: compound 100 µM; substrate 3 mM
T1 construct: catalogue number not given
T1 sequence (O42275 24-633): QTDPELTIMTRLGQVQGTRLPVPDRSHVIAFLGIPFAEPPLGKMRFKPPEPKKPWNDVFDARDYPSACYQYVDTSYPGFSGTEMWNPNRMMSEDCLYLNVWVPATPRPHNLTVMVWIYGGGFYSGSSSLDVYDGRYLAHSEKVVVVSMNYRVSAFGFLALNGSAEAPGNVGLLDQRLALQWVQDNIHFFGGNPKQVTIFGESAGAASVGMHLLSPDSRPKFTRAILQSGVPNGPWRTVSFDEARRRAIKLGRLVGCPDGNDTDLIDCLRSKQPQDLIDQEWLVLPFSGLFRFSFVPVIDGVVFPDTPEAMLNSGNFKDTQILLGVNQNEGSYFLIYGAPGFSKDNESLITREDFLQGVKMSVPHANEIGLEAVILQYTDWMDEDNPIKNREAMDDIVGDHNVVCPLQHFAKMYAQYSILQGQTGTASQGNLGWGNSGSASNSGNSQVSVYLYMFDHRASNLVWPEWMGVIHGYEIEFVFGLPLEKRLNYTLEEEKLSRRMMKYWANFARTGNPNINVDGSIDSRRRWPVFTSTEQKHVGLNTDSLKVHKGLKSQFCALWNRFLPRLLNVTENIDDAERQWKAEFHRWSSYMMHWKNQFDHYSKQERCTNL
Description: (§7) Firstly, the inhibitory activity of the quercetin-1,2,3-triazole hybrids I–IV was screened in vitro on eeAChE and eqBuChE at a concentration of 100 μM (these enzymes are considered as models of the human isoform). The ChE inhibitory activity of all compounds was evaluated using the method of Ellman.
(§8) The inhibitory activities of title compounds against commercially available cholinesterases (eeAChE) (Electrophorus electricus, Type V-S), eqBuChE (equine serum), were conducted using minor modifications of Ellman’s assay. Nine different concentrations ([…], 37.5, 75, 150, and 300 μM in H2O:DMSO (50:50)) of each test compound were used to determine the enzyme-inhibition activity. Briefly, 55 μL of 50 mM Tris-HCl buffer at pH 8, 25 μL of eqBuChE (0.03 U/mL), 20 μL of the test or standard compounds, and 125 μL of DTNB (0.8 mM) were incubated in 96-well plates at 37 °C for 15 min. Further, 25 μL of the substrate, BTCI (0.8 mM), was added, and the solution was incubated for additional 15 min. Finally, the absorbance was measured at 412 nm wavelength using a Microplate Spectrophotometry (TriStar® S LB 942 model instrument). The IC50 values were determined from the absorbance obtained for various concentrations of the test and the standard compounds. All determinations were performed in triplicate.
(§9) To determine the % of inhibition ([I] = 100 μM), the substrate concentration (acetylthiocholine iodide for AChE; S-butyrylthiocholine iodide for BuChE) was fixed at 3 mM.

[3] = DPPH radical scavenging antioxidant assay
Description: To assess the antioxidant activity of hybrids IVa–e, IIf and quercetin, the 2,2-diphenyl-1-[…] (DPPH) radical scavenging colorimetric method was used, which is one of the most widely used methods for determining antioxidant activity. In this method, antioxidants react with DPPH (which has a strong violet color) and convert it into yellow diphenylpicrylhydrazine. Compounds were assayed in the range of concentrations from 3 to 200 μg/mL. Ascorbic acid was used as positive control. […] Another piece of evidence is the similarity between the % inhibition values of hybrids IVa,b and IVd,e and quercetin.
The colorimetric DPPH assay was carried out as described in [33]. […] In brief, 30 μL of a test compound (in MeOH) was mixed with 200 μL of DPPH (100 μM in methanol) in a 96-well plate in triplicate. After 30 min incubation at room temperature in the absence of light, the absorbances were measured at 517 nm using Microplate Spectrophotometry (TriStar® S LB 942 model instrument). The free radical scavenging activity results are expressed as a percentage of DPPH inhibition according to the following formula:
% of Inhibition = 100[(A(Blank) − A(sample))/A(blank)], where A(blank) consists of methanol (30 μL) mixed with DPPH (200 μL) absorbance, and A(sample) is the absorbance value for the added sample concentration compound mixed with DPPH. Ascorbic acid was used as a positive control.

[4] = Artemia salina lethal toxicity assay; format: in vivo; details: Artemia salina, in vivo, other: grown in the presence of the compound, Artemia salina nauplii
Description: (§10) Artemia salina was used for in vivo general toxicity assessment of the promising hybrids IVb, IVd, and IIf; the results are shown in Table 4 and Figure 7. K2Cr2O7 was used as a control. Hybrid IVd presented the lowest toxicity.
(§11) The ARTOXKIT M protocol was used. The percentage of dyed nauplii of Artemia salina, grown in the presence of variable concentrations of the inhibitor compounds, was measured to determine the LC50 values. A test with K2Cr2O7 was used for quality control.

Artemia salina = Artemia salina lethal toxicity assay; format: in vivo; details: for concentrations without toxicity: Artemia salina
Description: as §10, §11

eqBuChE [5] = molecular target: T2, eqBuChE (Equus caballus, UniProt P81908); assay: Ellman cholinesterase inhibitory assay, eqBuChE (screening and IC50); format: biochemical; details: for inhibition at 100 µM: compound 100 µM, substrate 3 mM; for IC50: concentration range 1.2-300 µM, BTCI 0.8 mM, read-out: IC50 values for eqBuChE
T2 construct: equine serum butyrylcholinesterase (eqBuChE); purchased Sigma-Aldrich (lyophilized powder, 10.9 U/mg); host or cells: equine serum
T2 sequence (P81908 whole entry): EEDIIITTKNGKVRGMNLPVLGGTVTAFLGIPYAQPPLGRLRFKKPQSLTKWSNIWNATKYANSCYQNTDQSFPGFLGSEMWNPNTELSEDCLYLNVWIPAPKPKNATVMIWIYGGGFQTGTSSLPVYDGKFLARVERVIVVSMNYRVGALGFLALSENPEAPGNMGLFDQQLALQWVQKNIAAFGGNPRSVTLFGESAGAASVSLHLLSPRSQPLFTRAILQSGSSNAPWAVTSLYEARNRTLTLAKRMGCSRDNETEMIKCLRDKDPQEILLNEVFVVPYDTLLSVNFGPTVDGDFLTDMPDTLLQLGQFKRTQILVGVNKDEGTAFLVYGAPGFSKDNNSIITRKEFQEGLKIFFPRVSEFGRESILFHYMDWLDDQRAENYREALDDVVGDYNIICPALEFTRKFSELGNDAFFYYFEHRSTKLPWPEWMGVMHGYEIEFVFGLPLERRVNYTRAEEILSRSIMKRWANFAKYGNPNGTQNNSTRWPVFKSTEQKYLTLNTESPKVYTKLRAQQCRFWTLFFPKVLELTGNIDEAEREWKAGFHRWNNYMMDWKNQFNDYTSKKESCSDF
Description: as §7, §8, §9

eqBuChE [6] = molecular target: T2, eqBuChE; assay: Kinetic study for the inhibition of eqBuChE (Lineweaver-Burk); format: biochemical; details: for Inhibition type / Ki: Lineweaver-Burk; for Ki: read-out: Ki (inhibitory constant)
Source text: The interaction with the active center of the enzyme thus seems to be favored by the presence of polar groups. Hybrid IIf presented the smaller Ki (Table 3), binding to the enzyme with the higher affinity, which can be relevant for pharmacologic applications in the future.
Lineweaver–Burk plot (1/V vs. 1/[BTCI]) was used for determining the inhibition constants (Ki’s) and the mechanism of action.

[7] = test system: REM-138 cell line (canine breast cancer); parameters: method as in doi:10.1055/s-0040-1719928; details: REM cells; 72 h incubation; cited from earlier work
in vitro = details: human
Description: as §1, §2, §3, §4, §5, §6

Compound	cellular antioxidant protection against H2O2 (MCF-7 cells [2])	inhibition at 100 µM (eeAChE)	LC50 [4]	concentrations without toxicity (Artemia salina)	inhibition at 100 µM (eqBuChE [5])	IC50 (eqBuChE [5])	Inhibition type (eqBuChE [6])	Ki (eqBuChE [6])	DPPH antioxidant activity ([3]; 100 μg/mL)	cytotoxic concentration [7]	Vmax app (eqBuChE [6]; inhibitor 17.5 µM)	Vmax app (eqBuChE [6]; inhibitor 35 µM)	also measured
COc1ccc2c3c1O[C@H]1C[C@@H](O)C=C[C@@]31CCN(C)C2 [Galantamine, reference compound]	good antioxidant cellular protection												effect on cellular viability (MCF-7 cells [1]; concentrations tested 6.25-50 μM, MCF-7): did not reduce cellular viability
COc1cc(OC)c2c(=O)c(OCCCCn3cc(CN4C(=O)C(=O)c5ccccc54)nn3)c(-c3ccc(OC)c(OC)c3)oc2c1 [IIf, 1-((1-(4-((2-(3,4-Dimethoxyphenyl)-5,7-dimethoxy-4-oxo-4H-chromen-3-yl)oxy)butyl)-1H-1,2,3-triazol-4-yl)methyl)indoline-2,3-dione]	equally effective in the antioxidant protection	24.3%	34.6 µM	≤ 10 µM	100%	11.2 µM	competitive inhibition	6.2 µM					DPPH antioxidant activity ([3]; 3 to 200 μg/mL): no antioxidant activity; Vmax app (eqBuChE [6]; inhibitor 5 µM): 11.8 U.mg^−1; Vmax app (eqBuChE [6]; inhibitor 20 µM): 11.4 U.mg^−1; Vmax app (eqBuChE [6]; inhibitor 40 µM): 13.4 U.mg^−1
O=c1c(OCCCCn2cc(-c3ccccc3)nn2)c(-c2ccc(O)c(O)c2)oc2cc(O)cc(O)c12 [IVa, 2-(3,4-Dihydroxyphenyl)-5,7-dihydroxy-3-(4-(4-phenyl-1H-1,2,3-triazol-1-yl)butoxy)-4H-chromen-4-one]		0%			82.8%	24.7 µM			potent antioxidant activity	> 10 µM			reduction of cellular viability (MCF-7 cells [1]; 6.25 μM, MCF-7, 2 h, without H2O2): 40%
O=c1c(OCCCCn2cc(C3CC3)nn2)c(-c2ccc(O)c(O)c2)oc2cc(O)cc(O)c12 [IVb, 3-(4-(4-Cyclopropyl-1H-1,2,3-triazol-1-yl)butoxy)-2-(3,4-dihydroxyphenyl)-5,7-dihydroxy-4H-chromen-4-one]	equally effective in the antioxidant protection	5.21%	10 to 100 µM	≤ 10 µM	90.5%	32.4 µM	mixed type (non-competitive)	30 µM	potent antioxidant activity	> 10 µM	7.5 U.mg^−1	6.5 U.mg^−1	cytotoxic concentration (MCF-7 cells [1]; human, 2 h): > 25 µM; Vmax app (eqBuChE [6]; inhibitor 70 µM): 4.5 U.mg^−1
CC(C)(O)c1cn(CCCCOc2c(-c3ccc(O)c(O)c3)oc3cc(O)cc(O)c3c2=O)nn1 [IVd, 2-(3,4-Dihydroxyphenyl)-5,7-dihydroxy-3-(4-(4-(2-hydroxypropan-2-yl)-1H-1,2,3-triazol-1-yl)butoxy)-4H-chromen-4-one]	equally effective in the antioxidant protection	3.65%	> 100 µM		56.6%	39 µM	competitive inhibition	36 µM	potent antioxidant activity		9.6 U.mg^−1	9.0 U.mg^−1	LC50 (Artemia salina; Artemia salina nauplii, read-out: LC50): ≥ 100 µM; EC50 at 2 h (in vitro): > 50 µM
